# In patent publication US12398121B2 (Nuvation Bio Inc., priority 2018, dated 2025):
# Like-named read-outs stand apart in the source and are kept apart here.
# What was measured:
# AR in LNCaP cytosol = target: T1, AR in LNCaP cytosol (Homo sapiens, UniProt P10275, T878A); test: AR binding assay (3H-methyltrienolone displacement)
# T1 construct: endogenous in cells; host or cells: LNCaP cytosol
# T1 sequence (P10275 1-920 T878A): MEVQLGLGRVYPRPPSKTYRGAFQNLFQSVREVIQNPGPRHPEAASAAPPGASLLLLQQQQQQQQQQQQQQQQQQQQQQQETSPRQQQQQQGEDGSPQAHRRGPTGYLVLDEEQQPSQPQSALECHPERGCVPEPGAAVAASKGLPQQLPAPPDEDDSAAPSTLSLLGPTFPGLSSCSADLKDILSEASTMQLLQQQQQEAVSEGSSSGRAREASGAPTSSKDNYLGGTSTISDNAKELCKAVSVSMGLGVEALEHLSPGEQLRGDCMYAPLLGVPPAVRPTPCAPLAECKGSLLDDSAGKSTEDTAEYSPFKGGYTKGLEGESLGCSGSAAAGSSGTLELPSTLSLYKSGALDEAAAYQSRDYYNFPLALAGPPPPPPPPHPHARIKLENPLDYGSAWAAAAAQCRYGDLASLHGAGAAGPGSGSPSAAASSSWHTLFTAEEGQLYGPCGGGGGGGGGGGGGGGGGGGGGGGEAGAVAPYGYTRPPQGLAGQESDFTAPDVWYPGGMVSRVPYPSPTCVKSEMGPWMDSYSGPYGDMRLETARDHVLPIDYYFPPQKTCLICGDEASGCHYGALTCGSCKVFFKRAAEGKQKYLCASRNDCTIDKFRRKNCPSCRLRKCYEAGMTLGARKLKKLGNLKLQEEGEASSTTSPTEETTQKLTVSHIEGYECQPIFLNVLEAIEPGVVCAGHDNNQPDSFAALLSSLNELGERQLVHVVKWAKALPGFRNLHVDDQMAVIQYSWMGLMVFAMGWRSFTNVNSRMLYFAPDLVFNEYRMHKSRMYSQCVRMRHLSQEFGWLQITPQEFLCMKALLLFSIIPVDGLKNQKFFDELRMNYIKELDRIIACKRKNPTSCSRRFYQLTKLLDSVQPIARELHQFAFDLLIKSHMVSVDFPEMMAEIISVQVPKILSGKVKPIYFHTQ
# In short: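 LNCaP cytosol incubated with compound (8 concentrations) and 1 nM ³H-methyltrienolone for 24 h at 4 °C, free ligand removed with dextran-coated charcoal and bound counted. IC50 from variable-slope fit, converted to Ki via Cheng–Prusoff with Kd 0.332 nM.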
# Human recombinant PARP1 = Human recombinant PARP1 (Homo sapiens, UniProt P09874); test: RBC HotSpot PARP1 radioisotope-based filter binding assay; type: biochemical; details: 2.5 nM enzyme, histone H4, 10 μM 32P-NAD+; read-out: PARP1 IC50
# Human recombinant PARP1, sequence (P09874 whole entry): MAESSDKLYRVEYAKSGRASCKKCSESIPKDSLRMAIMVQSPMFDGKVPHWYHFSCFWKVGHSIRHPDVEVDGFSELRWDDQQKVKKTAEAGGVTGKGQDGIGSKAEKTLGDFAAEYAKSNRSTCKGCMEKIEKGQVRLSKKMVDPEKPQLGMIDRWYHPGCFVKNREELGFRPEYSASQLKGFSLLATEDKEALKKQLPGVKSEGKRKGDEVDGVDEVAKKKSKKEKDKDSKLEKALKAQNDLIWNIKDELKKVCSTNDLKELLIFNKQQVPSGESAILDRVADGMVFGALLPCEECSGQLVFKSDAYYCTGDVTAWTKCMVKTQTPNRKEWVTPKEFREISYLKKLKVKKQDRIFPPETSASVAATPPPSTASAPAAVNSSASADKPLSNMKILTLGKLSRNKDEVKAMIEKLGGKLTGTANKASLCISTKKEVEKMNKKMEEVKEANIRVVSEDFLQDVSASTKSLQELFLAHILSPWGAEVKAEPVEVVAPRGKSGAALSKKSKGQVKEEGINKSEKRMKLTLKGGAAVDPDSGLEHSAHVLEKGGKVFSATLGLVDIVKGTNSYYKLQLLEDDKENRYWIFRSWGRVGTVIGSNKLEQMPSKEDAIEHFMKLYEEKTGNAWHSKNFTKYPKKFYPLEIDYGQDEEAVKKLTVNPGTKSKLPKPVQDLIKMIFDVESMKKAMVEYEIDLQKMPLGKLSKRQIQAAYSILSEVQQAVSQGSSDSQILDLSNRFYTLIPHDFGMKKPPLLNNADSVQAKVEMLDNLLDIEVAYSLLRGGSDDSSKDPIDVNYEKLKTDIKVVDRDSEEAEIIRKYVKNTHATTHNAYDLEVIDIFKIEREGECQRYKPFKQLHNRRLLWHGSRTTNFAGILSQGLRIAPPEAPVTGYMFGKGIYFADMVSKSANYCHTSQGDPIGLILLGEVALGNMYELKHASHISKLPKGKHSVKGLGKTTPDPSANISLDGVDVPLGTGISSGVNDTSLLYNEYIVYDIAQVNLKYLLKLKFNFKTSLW
# In short: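 Radiometric filter-binding assay: 2.5 nM recombinant enzyme with 20 μM histone (H4 for PARP1, H3 for PARP2) and activated DNA, pH 8.0, 1% DMSO. 20 min preincubation, then 10 μM ^32P-NAD^+ for 2 h at room temperature; filtered radioactivity gives IC50 fits.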
Structure (SMILES),"Ki (AR in LNCaP cytosol; Ki=IC50/(1+[L]/Kd), [L] 1 nM, Kd 0.332 nM, read-out: AR Ki)",IC50 (Human recombinant PARP1),Ki (AR in LNCaP cytosol)
"C[C@]12CCC(=O)C[C@@H]1CC[C@@H]1[C@@H]2CC[C@@]2(C)[C@H]1CC[C@@]2(O)C#CCN1CCN(C(=O)c2cc(Cc3n[nH]c(=O)c4ccccc34)ccc2F)CC1 [Compound 1.118, 4-(4-fluoro-3-(4-(3-((5S,8R,9S,10S,13S,14S,17S)-17-hydroxy-10,13-dimethyl-3-oxohexadecahydro-1H-cyclopenta[a]phenanthren-17-yl)prop-2-ynyl)piperazine-1-carbonyl)benzyl)phthalazin-1(2H)-one]",> 7470 nM,13.6 nM,
"C[C@]12CCC(=O)C[C@@H]1CC[C@@H]1[C@@H]2CC[C@@]2(C)[C@H]1CC[C@@]2(O)CCCN1CCN(C(=O)c2cc(Cc3n[nH]c(=O)c4ccccc34)ccc2F)CC1 [Compound 1.119, 4-(4-fluoro-3-(4-(3-((5S,8R,9S,10S,13S,14S,17R)-17-hydroxy-10,13-dimethyl-3-oxohexadecahydro-1H-cyclopenta[a]phenanthren-17-yl)propyl)piperazine-1-carbonyl)benzyl)phthalazin-1(2H)-one]",,1.6 nM,20 nM
